In ChEMBL document CHEMBL4732115, “Discovery of novel cell-penetrating and tumor-targeting peptide-drug conjugate (PDC) for programmable delivery of paclitaxel and cancer treatment” (Eur J Med Chem, 2021):
The source made the active and inactive calls. The calls are words filed in the database; no cut-off is given here. Peptide text beside a SMILES is read from it. * marks the point of attachment. X1 = CC(=O)O[C@H]1C(=O)[C@@]2(C)[C@H]([C@H](OC(=O)c3ccccc3)[C@]3(O)C[C@H](OC(=O)[C@H](OC(=O)OCCS*)[C@@H](NC(=O)c4ccccc4)c4ccccc4)C(C)=C1C3(C)C)[C@]1(OC(C)=O)CO[C@@H]1C[C@@H]2O; X2 = NCCCC[C@H](N*)C(=O)NC(=O)C1CCC(=O)N1

Legend:
MCF7 [1] = test: Antitumor activity against human MCF7 cells xenografted in BALB/c nude mouse assessed as reduction in tumor volume at 12 umol/kg, ip administered every two days for two weeks relative to control; format: functional; set-up: scale not given: the % may be the effect or the level left; conditions: dose 12 µmol/kg; time 2 weeks
MCF7 [2] = test: Cytotoxicity against human MCF7 cells assessed as reduction in cell viability measured after 48 hrs in presence of MMP inhibitor ilomastat by MTT assay; format: functional, cell-based
[3] = Drug conversion in tumor of BALB/c nude mouse xenografted with human MCF7 cells assessed as PTX formation at 8 to 12 umol/kg, ip measured after 2 hrs by LC-MS analysis; format: ADME, organism-based, Neoplasm; conditions: in vivo, dose 8-12 µmol/kg
MCF7 [4] = test: Cytotoxicity against human MCF7 cells assessed as reduction in cell viability measured after 48 hrs in presence of LHRH by MTT assay; format: functional, cell-based
[5] = Drug conversion in liver of BALB/c nude mouse xenografted with human MCF7 cells assessed as T2-PTX formation at 8 to 12 umol/kg, ip measured after 2 hrs by LC-MS analysis; format: ADME, organism-based; conditions: in vivo, dose 8-12 µmol/kg
[6] = Half life in human plasma at 50 uM by LC-MS analysis; format: ADME, cell-free
[7] = Toxicity in human MCF7 cells xenografted in BALB/c nude mouse assessed as change in body weight at 8 to 12 umol/kg, ip administered every two days for two weeks; format: organism-based; conditions: in vivo, 336 h, dose 8-12 µmol/kg, time 2 weeks
MCF7 [8] = test: Antitumor activity against human MCF7 cells xenografted in BALB/c nude mouse assessed as reduction in tumor volume at 8 umol/kg, ip administered every two days for two weeks relative to control; format: functional; set-up: scale not given: the % may be the effect or the level left; conditions: dose 8 µmol/kg; time 2 weeks
[9] = Toxicity in human MCF7 cells xenografted in BALB/c nude mouse assessed as morphological changes in kidney at 8 to 12 umol/kg, ip administered every two days for two weeks measured post last dose by H and E staining based histological analysis; format: organism-based; conditions: in vivo, 336 h, dose 8-12 µmol/kg, time 2 weeks
MCF7 [10] = test: Induction of apoptosis in human MCF7 cells xenografted in ip dosed BALB/c nude mouse assessed as up regulation of Bax expression administered every two days for two weeks measured post last dose by Western blot analysis; format: functional, organism-based; conditions: dose 8-12 µmol/kg, time 2.0 weeks
MCF7 [11] = test: Antitumor activity against human MCF7 cells xenografted in BALB/c nude mouse assessed as reduction in tumor weight at 12 umol/kg, ip administered every two days for two weeks relative to control; format: functional; set-up: scale not given: the % may be the effect or the level left; conditions: dose 12 µmol/kg; time 2 weeks
MCF7 [12] = test: Induction of mitochondrial membrane potential loss in human MCF7 cells at IC50 measured after 4 hrs by JC-1 staining based flow cytometry; format: functional, cell-based
[13] = Neurotoxicity in BALB/c mouse assessed as change in histidine level at 12 umol/kg, ip administered every two days for 14 days measured post last dose by LC-MS analysis; format: toxicity, organism-based; conditions: in vivo, 336 h, dose 12 µmol/kg, time 14 day
[14] = Drug uptake in human MCF7 cells at 20 nM measured after 4 hrs in presence of MMP inhibitor ilomastat and LHRH by LC-MS analysis; format: ADME, cell-based; conditions: mcf7, 4 h, 0.02 µM
[15] = Neurotoxicity in BALB/c mouse assessed as change in GABA level at 12 umol/kg, ip administered every two days for 14 days measured post last dose by LC-MS analysis; format: toxicity, organism-based; conditions: in vivo, 336 h, dose 12 µmol/kg, time 14 day
MCF7 [16] = test: Induction of apoptosis in human MCF7 cells xenografted in ip dosed BALB/c nude mouse assessed as up regulation of cleaved caspase-9 expression administered every two days for two weeks measured post last dose by Western blot analysis; format: functional, organism-based; conditions: dose 8-12 µmol/kg, time 2.0 weeks
[17] = Neurotoxicity in BALB/c mouse assessed as change in dopamine level at 12 umol/kg, ip administered every two days for 14 days measured post last dose by LC-MS analysis; format: toxicity, organism-based; conditions: in vivo, 336 h, dose 12 µmol/kg, time 14 day
[18] = Neurotoxicity in BALB/c mouse assessed as increase in pain sensitivity at 12 umol/kg, ip administered every two days for 14 days by hot water tail immersion test; format: toxicity, organism-based; conditions: in vivo, 336 h, dose 12 µmol/kg, time 14 day
[19] = Toxicity in human MCF7 cells xenografted in BALB/c nude mouse assessed as morphological changes in liver at 8 to 12 umol/kg, ip administered every two days for two weeks measured post last dose by H and E staining based histological analysis; format: organism-based; conditions: in vivo, 336 h, dose 8-12 µmol/kg, time 2 weeks
Tubulin (Homo sapiens) = Tubulin (Homo sapiens) (UniProt P68371+Q9H4B7+P0DPH7+P68366+Q13509+Q71U36+P04350+Q3ZCM7+P07437+P68363+Q9BQE3+Q6PEY2+Q13885+Q9BVA1+Q9BUF5); test: Inhibition of microtubule depolymerization in human MCF7 cells at 1.8 nM measured after 12 hrs by immunostaining based confocal microscopic analysis; format: cell-based
[20] = Neurotoxicity in BALB/c mouse assessed as change in histamine level at 12 umol/kg, ip administered every two days for 14 days measured post last dose by LC-MS analysis; format: toxicity, organism-based; conditions: in vivo, 336 h, dose 12 µmol/kg, time 14 day
[21] = Drug conversion in serum of BALB/c nude mouse xenografted with human MCF7 cells assessed as PTX formation at 8 to 12 umol/kg, ip measured after 2 hrs by LC-MS analysis; format: ADME, organism-based; conditions: in vivo, dose 8-12 µmol/kg
[22] = target: 72 kDa type IV collagenase (Homo sapiens, UniProt P08253); test: Drug metabolism in PBS buffer assessed as MMP2 (unknown origin)-mediated PTX formation at 0.5 uM incubated for 2 hrs followed by GSH addition and measured after 2 hrs by LC-MS analysis; format: ADME; conditions: 4 h
MCF7 [23] = test: Cytotoxicity against human MCF7 cells assessed as reduction in cell viability measured after 48 hrs by MTT assay; format: functional, cell-based; conditions: MCF7, 48 h
[24] = Drug uptake in human MCF7 cells at 20 nM measured after 4 hrs in presence of LHRH by LC-MS analysis; format: ADME, cell-based; conditions: mcf7, 4 h, 0.02 µM
[25] = Drug conversion in heart of BALB/c nude mouse xenografted with human MCF7 cells assessed as PTX formation at 8 to 12 umol/kg, ip measured after 2 hrs by LC-MS analysis; format: ADME, organism-based; conditions: in vivo, dose 8-12 µmol/kg
[26] = Stability of compound in PBS buffer at 0.5 uM measured after 2 hrs by LC-MS analysis; format: physicochemical

Chain of 72 kDa type IV collagenase (P08253 whole entry): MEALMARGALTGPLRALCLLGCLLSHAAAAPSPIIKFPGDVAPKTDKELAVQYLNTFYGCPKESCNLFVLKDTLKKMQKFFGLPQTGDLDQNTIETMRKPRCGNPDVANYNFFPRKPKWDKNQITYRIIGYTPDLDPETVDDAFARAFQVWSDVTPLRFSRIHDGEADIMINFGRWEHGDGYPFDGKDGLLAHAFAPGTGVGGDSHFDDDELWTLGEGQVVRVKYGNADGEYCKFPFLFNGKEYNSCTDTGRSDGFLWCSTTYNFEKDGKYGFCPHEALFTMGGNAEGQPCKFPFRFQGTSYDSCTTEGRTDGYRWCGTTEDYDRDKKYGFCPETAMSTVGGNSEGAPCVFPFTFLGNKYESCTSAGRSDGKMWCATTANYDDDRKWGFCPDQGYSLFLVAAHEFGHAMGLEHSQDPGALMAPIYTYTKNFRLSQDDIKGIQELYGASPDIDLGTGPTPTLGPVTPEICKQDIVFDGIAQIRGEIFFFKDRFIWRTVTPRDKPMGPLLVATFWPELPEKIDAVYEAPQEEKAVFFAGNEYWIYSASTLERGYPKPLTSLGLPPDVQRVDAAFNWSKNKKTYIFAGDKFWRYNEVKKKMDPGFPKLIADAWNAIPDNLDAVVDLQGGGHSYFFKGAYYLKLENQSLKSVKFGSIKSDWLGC

For CC(=O)O[C@H]1C(=O)[C@@]2(C)[C@H]([C@H](OC(=O)c3ccccc3)[C@]3(O)C[C@H](OC(=O)[C@H](OC(=O)OCCSSC[C@H](N)C(=O)N[C@@H](CC(C)C)C(=O)N[C@@H](CC(C)C)C(=O)N[C@@H](CCCCN)C(=O)N[C@@H](CCCNC(=N)N)C(=O)N[C@@H](Cc4ccccc4)C(=O)N[C@@H](Cc4ccccc4)C(=O)N[C@@H](CCCCN)C(=O)N[C@@H](CCCCN)C(=O)N[C@@H](Cc4ccccc4)C(=O)NCC(=O)N[C@@H](C)C(=O)N[C@@H](CC(C)C)C(=O)NCC(=O)N[C@@H](CC(C)C)C(=O)N4CCC[C@H]4C(=O)NCC(=O)N4CCC[C@H]4C(=O)N[C@@H](CCCNC(=N)N)C(=O)N[C@@H](CC(C)C)C(=O)NCC(=O)N[C@@H](Cc4ccc(O)cc4)C(=O)N[C@@H](CO)C(=O)N[C@@H](Cc4c[nH]c5ccccc45)C(=O)N[C@@H](CCCCN)C(=O)NC(=O)C4CCC(=O)N4)[C@@H](NC(=O)c4ccccc4)c4ccccc4)C(C)=C1C3(C)C)[C@]1(OC(C)=O)CO[C@@H]1C[C@@H]2O (some centres not stated) (H-C(X1)LLKRFFKKFGALGLPGPRLGYSW-X2), the Activity (MCF7 [1]) was 90.1%, the Activity (MCF7 [2]) was “inactive” and the Drug metabolism [3] was “Metabolite_Detected”. For the same compound, the Activity (MCF7 [4]) was “inactive”, the Drug metabolism [5] was “Metabolite_Notdetected” and the half-life at 50 µM [6] was 2 h. The Activity [7] was “Non-Toxic”, the Activity (MCF7 [8]) was 77.2% and the Activity [9] was “Non-Toxic”. For the same compound, the Activity (MCF7 [10]) was “Dose-dependent effect”, the Activity (MCF7 [11]) was 83.4% and the Activity (MCF7 [12]) was “Active”. The Activity [13] was “Non-Toxic”, the Drug uptake [14] was “Active” and the Activity [15] was “Non-Toxic”. For the same compound, the Activity (MCF7 [16]) was “Dose-dependent effect”, the Activity [17] was “Non-Toxic” and the Activity [18] was “Non-Toxic”. For the same compound, the Activity [19] was “Non-Toxic”, the inhibition (Tubulin (Homo sapiens)) was “Active” and the Activity [20] was “Non-Toxic”. For the same compound, the Drug metabolism [21] was “Metabolite_Notdetected”, the Drug metabolism [22] was “Metabolite_Detected” and the IC50 (MCF7 [23]) was 3.8 nM. The Drug uptake [24] was “Active”, the Drug metabolism [25] was “Metabolite_Notdetected” and the Stabilty [26] was “Stable”.
